Results taken from ChEMBL document CHEMBL5029166, “Development of BET inhibitors as potential treatments for cancer: A new carboline chemotype” (Bioorg Med Chem Lett, 2021).
Values after ≈ are worked out from the molar mass of the structure shown.

How the values were obtained:
[1] = Permeability of the compound by PAMPA; format: ADME; conditions: read-out: permeability
[2] = Metabolic stability in monkey liver microsomes assessed as half life measured upto 120 mins; format: ADME, Microsome; conditions: macaca
[3] = Metabolic stability in mouse liver microsomes assessed as half life measured upto 120 mins; format: ADME, Microsome
[4] = Metabolic stability in dog liver microsomes assessed as half life measured upto 120 mins; format: ADME, Canis lupus familiaris, Microsome
[5] = Metabolic stability in rat liver microsomes assessed as half life measured upto 120 mins; format: ADME, Microsome
[6] = Metabolic stability in human liver microsomes assessed as half life measured upto 120 mins; format: ADME, Microsome
[7] = Antiproliferative activity against human JJN-3R cells assessed as reduction in cell viability; format: functional, cell-based
[8] = biological target: Bromodomain-containing protein 4 (Homo sapiens, UniProt O60885); assay: Inhibition of BRD4 (unknown origin)
[9] = Metabolic stability in human liver microsomes assessed as compound remaining; format: ADME, Microsome
[10] = Metabolic stability in rat liver microsomes assessed as compound remaining; format: ADME, Microsome
[11] = Metabolic stability in mouse liver microsomes assessed as compound remaining; format: ADME, Microsome
[12] = AUC in mouse at 3 mg/kg, po measured after 24 hrs; format: ADME, organism-based; design: route oral, dose 3 mg/kg, time 24 hrs; conditions: in vivo
[13] = Anticancer activity against human TNBC cancer tissue xenografted PDTX mouse model assessed as tumor growth inhibition at 4 mg/kg, po treated 5-day on/2-day off regimen for 2 weeks after 27 days of tumor implantation; format: functional; conditions: Breast carcinoma cell, 336 h, read-out: TGI
[14] = Anticancer activity against human TNBC cancer tissue xenografted PDTX po dosed mouse model assessed as growth inhibition treated 5-day on/2-day off regimen for 2 weeks after 27 days of tumor implantation; format: functional; conditions: Breast carcinoma cell, 336 h, read-out: MED
[15] = Solubility of the compound in pH 6.5 phosphate buffer; format: physicochemical

SMILES | Papp [1] | half-life [2] | half-life [3] | half-life [4] | half-life [5] | half-life [6] | IC50 [7] | IC50 [8] | Stability [9] | Stability [10] | Stability [11] | AUC at 24 h [12] | inhibition in vivo at 4 mg/kg [13] | minimal effective dose [14] | solubility [15]
[2H]C([2H])([2H])c1nnn(C)c1-c1cc2c(cc1F)c1ncc(C(C)(C)O)cc1n2[C@H](c1cc(C)on1)C1CCOCC1 | 30 ×10⁻⁶ cm/s | 12 min | 31 min | 53 min | 1 min | 61 min | 12 nM | 0.6 nM | – | – | – | – | – | – | –
Cc1nnn(C)c1-c1ccc2c3ncc(C(C)(C)O)cc3n([C@H](c3ccccc3)C3CCOCC3)c2c1 | – | 4 min | 11 min | 15 min | 3 min | 7 min | 1.8 nM | 0.6 nM | – | – | – | – | – | – | –
Cc1nnn(C)c1-c1ccc2c3ncc(C(C)(C)O)cc3n([C@H](c3ccccc3)C3CCOCC3)c2c1F | – | – | – | – | – | – | 4.5 nM | 4 nM | 7% | 3% | 72% | – | – | – | –
Cc1nnn(C)c1-c1cc(F)c2c3ncc(C(C)(C)O)cc3n([C@H](c3ccccc3)C3CCOCC3)c2c1 | – | 5 min | 26 min | 29 min | 10 min | 9 min | 51 nM | 0.7 nM | – | – | – | – | – | – | –
Cc1nnn(C)c1-c1cc2c(cc1F)c1ncc(C(C)(C)O)cc1n2[C@H](c1ccccc1)C1CCOCC1 | – | 9 min | 21 min | 22 min | 7 min | 25 min | 6.2 nM | 1.3 nM | – | – | – | – | – | – | –
[2H]C([2H])([2H])c1nnn(C)c1-c1cc2c(cc1F)c1ncc(C(C)(C)O)cc1n2[C@H](c1ncccc1F)C1CCOCC1 | 55 ×10⁻⁶ cm/s | 21 min | 32 min | 22 min | 87 min | 95 min | 5.3 nM | 0.6 nM | – | – | – | 11.1 µM·h | 76% | 4 mg/kg | –
[2H]C([2H])([2H])c1nnn(C)c1-c1cc2c(cc1F)c1ncc(C(C)(C)O)cc1n2[C@H](c1ccccc1)C1CCOCC1 | 84 ×10⁻⁶ cm/s | 14 min | 46 min | 46 min | 9 min | 54 min | 7.6 nM | 0.4 nM | – | – | – | 10 µM·h | – | – | 13 µg/mL (≈ 25.2 µM)
[2H]C([2H])([2H])c1nnn(C)c1-c1cc2c(cc1F)c1ncc(C(C)(C)O)cc1n2[C@@H](CCC)c1ncccc1F | – | 36 min | 53 min | 14 min | 37 min | 74 min | 2.4 nM | 0.5 nM | – | – | – | – | – | – | –
Cc1sc2c(c1C)C(c1ccc(Cl)cc1)=N[C@@H](CC(=O)OC(C)(C)C)c1nnc(C)n1-2 | – | – | – | – | – | – | – | – | – | – | – | 7.4 µM·h | – | – | –
[2H]C([2H])([2H])c1nnn(C)c1-c1cc2c(cn1)c1ncc(C(C)(C)O)cc1n2[C@H](c1ccccc1)C1CCOCC1 | – | 92 min | 120 min | 120 min | 46 min | 120 min | 22 nM | – | – | – | – | – | – | – | –
Cc1nnn(C)c1-c1cnc2c3ccc(C(C)(C)O)cc3n([C@H](c3ccccc3)C3CCOCC3)c2c1 [EZOBRESIB] | – | 11 min | 23 min | 20 min | 40 min | 36 min | 3.6 nM | 0.8 nM | – | – | – | – | – | – | –
[2H]C([2H])([2H])c1nnn(C)c1-c1cc2c(cc1Cl)c1ncc(C(C)(C)O)cc1n2[C@H](c1ccccc1)C1CCOCC1 | – | – | – | – | – | – | 260 nM | – | – | – | – | – | – | – | –
